Reference: publication PMC10526199 (Biomolecules, 2023)

How the values were obtained:
HDAC1 = conditions: cited from earlier work
HDAC2 = conditions: cited from earlier work
HDAC8 = conditions: cited from earlier work
HDAC3 = conditions: cited from earlier work
3xTg-AD mice [1] = assay: Behavior tests (NOR and battery) in 3xTg-AD mice; type: in vivo, mouse; conditions: 0.01 mg/kg oral gavage 5 days a week
Excerpt: (§1) Male and female triple-transgenic AD (3xTg-AD) mice from the NIH-supported Mutant Mouse Resource & Research Centers (MMRRC) were purchased through the Jackson Laboratory (Farmington, CT, USA). Mice were housed four animals per cage in an AAALAC-accredited animal facility at the University of Miami Miller School of Medicine. All experiments were approved by the University of Miami Miller School of Medicine Institutional Animal Care and Use Committee (IACUC).
(§2) Formulations were made fresh weekly and sonicated briefly to mix. Beginning at 4 months of age (prior to disease development), mice were treated 5 days a week for 9 months.
A series of behavior tests intended to test motor coordination, anxiety, spatial learning, and reference memory was performed as previously performed by our lab. Motor coordination was assessed at 11 months of age using rotarod. Anxiety was assessed by open field at 7 months and elevated O-maze at 11 months. […]
1. […] Motor coordination was assessed by the latency to fall on the very first trial between treatment groups. […]
3. […] Arm entries were recorded and percent of spontaneous alternations was calculated. […]
4. […] Distance traveled, velocity of movement within the arena, and time in center versus periphery were recorded and analyzed. Anxiety- related behavior is assessed by the duration spent in the center of the field versus the periphery. […]

3xTg-AD mice [2] = assay: Intraperitoneal glucose tolerance testing (GTT) in 3xTg-AD mice; type: in vivo, mouse; conditions: 10 months of age, 0.01 mg/kg oral gavage 5 days a week
Excerpt: as §1, §2
(§3) Mice underwent intraperitoneal (i.p.) glucose tolerance testing (GTT) at 10 months of age, and insulin tolerance testing (ITT) at 12 months of age. For both tests, mice were food fasted 6 h prior to testing, with access to water. For GTT, mice were injected with 1.5 g/kg body weight glucose diluted in saline. For ITT, mice were injected with 0.8 U/kg body weight insulin. For both tests, blood glucose was measured from a tail prick by a glucometer (Bayer; Leverkusen, Germany) at 0, 15, 30, 60, 90, and 120 min.

3xTg-AD mice [3] = assay: Insulin tolerance testing (ITT) in 3xTg-AD mice; type: in vivo, mouse; conditions: 12 months, 0.01 mg/kg oral gavage 5 days a week
Excerpt: as §1, §2, §3

[4] = tested on: Human Aβ1–42, Aβ1–40, total tau, phosphorylated-tau Serine-396, phosphorylated-tau Threonine-181; assay: ELISA for tau and Aβ species in brain tissue of 3xTg-AD mice; type: in vivo, mouse
Excerpt: as §1, §2
(§4) At 13 months of age, mice were anaesthetized with isoflurane and euthanized via cardiac puncture. The brain was extracted and quickly dissected on ice, and snap-frozen in liquid nitrogen. The samples were stored at −80 °C until processed. For each mouse, brain regions from one hemisphere were used for RNA extraction and qPCR and sections from the other hemisphere were used for protein extraction and ELISAs.
Protein lysates were prepared by sonicating tissue in M-PER Mammalian Protein Extraction Reagent (Thermo Fisher Scientific; Waltham, MA, USA) supplemented with protease and phosphatase inhibitor (Thermo Fisher Scientific). Total protein was quantified using Pierce BCA Protein Assay Kit (Thermo Fisher Scientific). Human Aβ1–42, Aβ1–40, total tau, phosphorylated-tau Serine-396, and phosphorylated-tau Threonine-181 were measured in brain tissue by enzyme-linked immunosorbent assay (ELISA; Invitrogen, Thermo Fisher Scientific), and measured using the EnVision® multimode plate reader (Perkin Elmer; Waltham, MA, USA).

[5] = tested on: differentially expressed genes; assay: NanoString nCounter Mouse Neuropathology Panel and Ingenuity Pathway Analysis, ERC RNA of 3xTg-AD mice; type: in vivo; conditions: for DEGs decreased compared to vehicle / DEGs increased compared to vehicle / significant differentially expressed genes (DEG) compared to vehicle: ERC, 0.01 mg/kg oral gavage 9 months; for significant differentially expressed genes (DEG) compared to vehicle: Q value < 0.01; for most pathways incl. neuroinflammation signaling and amyloid processing pathway, vs vehicle: Ingenuity Pathway Analysis
Excerpt: as §1, §2, §4
The NanoString Technologies nCounter® Mouse Neuropathology Panel was used to assess ERC RNA. This panel screens expression of 770 genes specific for neurodegeneration. We also included a custom 30-gene spike-in code set to include specific genes of interest. Assays were performed using the NanoString protocols, and data were normalized in nSolver® analysis software v 2.0.
Heatmaps were created with Morpheus Software (accessed on 20 February 2022; software.broadinstitute.org/Morpheus). Ingenuity Pathway Analysis (Qiagen) was used to run comparison analyses of differentially regulated pathways between male and female animals.

Adam10, Slc2a1, Slc2a3 = assay: RT-qPCR of AD- and glucose metabolism-related genes in brain of 3xTg-AD mice; type: in vivo, mouse; conditions: 0.01 mg/kg oral gavage 9 months
Excerpt: as §1, §2, §4
RNA was isolated from tissue using TRIzol® reagent (Life Technologies, Thermo Fisher Scientific) and a Qiagen RNeasy® Mini Kit (Qiagen; Hilden, Germany). RNA concentrations and quality were determined using NanoDrop 2000 UV-Vis Spectrophotometer (Thermo Fisher Scientific). cDNA was created using qScript cDNA Synthesis kit (Quantabio; Beverly, MA, USA). RT-qPCR was run using TaqMan 2-step RT-qPCR reagents (Thermo Fisher Scientific) on the QuantStudio Flex RT-qPCR system (Applied Biosystems, Thermo Fisher Scientific). Fold-change in gene expression relative to non-transduced controls were normalized. Results presented are based on fold-change using the 2^(−ΔΔCt) method.

HDAC10 = conditions: cited from earlier work
[6] = cited from earlier work
[7] = tested on: histone H3K27 acetylation; conditions: 0.1 mg/kg, mouse model of immune thrombocytopenia; cited from earlier work
[8] = PFC, 0.01 mg/kg oral gavage 5 days a week for 9 months
[9] = hippocampus, females, 0.01 mg/kg oral gavage 5 days a week for 9 months
[10] = hippocampus, males, 0.01 mg/kg oral gavage 5 days a week for 9 months

CC(=O)Nc1ccc(C(=O)Nc2ccccc2N)cc1 [Tacedinaline]
IC50 (HDAC2): 900 nM
IC50 (HDAC3): 1200 nM
inhibition of HDAC8 (HDAC8): not reported to inhibit HDAC8

Nc1cc(F)ccc1NC(=O)c1ccc(CNC(=O)/C=C/c2cccnc2)cc1 [chidamide]
NOR: time exploring novel vs familiar object compared to vehicle (3xTg-AD mice [1]; 10-month-old males): longer time exploring the novel object
overall behavior data (anxiety, learning, memory) (3xTg-AD mice [1]; males and females): do not reach the appropriate effect size to distinguish any meaningful results
glucose tolerance vs vehicle (3xTg-AD mice [2]; females): trend towards improved glucose tolerance
glucose tolerance vs vehicle (3xTg-AD mice [2]; males): significant improvement in glucose tolerance
insulin tolerance vs vehicle (3xTg-AD mice [3]; females): No significant differences
insulin tolerance vs vehicle (3xTg-AD mice [3]; males): No significant differences
tau phosphorylated at serine 396 (S396) vs vehicle ([4]; PFC, females, 0.01 mg/kg oral gavage 5 days a week for 9 months): no significant difference
tau phosphorylated at serine 396 (S396) vs vehicle ([4]; PFC, males, 0.01 mg/kg oral gavage 5 days a week for 9 months): significantly greater
Aβ-40 levels, treated females compared to treated males [4, 8]: greater in chidamide-treated females compared to males
PFC Aβ-42 change with treatment [4, 8]: a corresponding decrease in PFC Aβ-42 was not observed
progression of AD-like pathology ([4]; chronic, low-dose 0.01 mg/kg, 3xTg-AD mouse): does not appear to significantly alter progression of AD-like pathology
tau phosphorylated at threonine 181 (T181) vs vehicle [4, 9]: trend for decreased levels
total tau levels vs vehicle [4, 9]: did not show a significant difference
tau phosphorylated at threonine 181 (T181) vs vehicle [4, 10]: trend for decreased levels
total tau levels vs vehicle [4, 10]: significantly lower levels of total tau
Aβ-42 levels, treated females compared to treated males ([4]; hippocampus, 0.01 mg/kg oral gavage 5 days a week for 9 months): significantly greater in the hippocampus of female- compared to male-treated mice
DEGs decreased compared to vehicle ([5]; females): 6
DEGs increased compared to vehicle ([5]; females): 11
significant differentially expressed genes (DEG) compared to vehicle ([5]; females): 17
most pathways incl. neuroinflammation signaling and amyloid processing pathway, vs vehicle ([5]; females): downregulated
DEGs decreased compared to vehicle ([5]; males): 41
DEGs increased compared to vehicle ([5]; males): 83
significant differentially expressed genes (DEG) compared to vehicle ([5]; males): 124
most pathways incl. neuroinflammation signaling and amyloid processing pathway, vs vehicle ([5]; males): upregulated
Adam10 expression vs vehicle (Adam10, Slc2a1, Slc2a3; PFC, females): significantly greater
Adam10 expression vs vehicle (Adam10, Slc2a1, Slc2a3; PFC, males): trend for increase
Adam10 expression vs vehicle (Adam10, Slc2a1, Slc2a3; hippocampus): no difference was observed
Slc2a1 (GLUT1) expression vs vehicle (Adam10, Slc2a1, Slc2a3; males, hippocampus): trend for an increase
Slc2a3 (GLUT3) expression vs vehicle (Adam10, Slc2a1, Slc2a3; males, hippocampus): significant increase
inhibition of HDAC1 (HDAC1): low nanomolar range
inhibition of HDAC2 (HDAC2): low nanomolar range
inhibition of HDAC3 (HDAC3): low nanomolar range
inhibition of class IIB HDAC10 (HDAC10): low nanomolar range
blood–brain barrier crossing [6]: crosses the blood–brain barrier
histone H3K27 acetylation [7]: modulation of histone H3K27 acetylation occurred at this low dose
